Test results published in patent US6743806B2, “Active oxygen scavenger” (Otsuka Pharmaceutical Company, Limited, priority 2002, dated 2004).

Tests used:
[1] = Hydroxyl radical scavenging efficacy (Fenton system, DMPO spin trap, EPR)
Description: Hydroxyl radical scavenging efficacy of cilostazol was determined in air-saturated phosphate buffer (10 mM) at room temperature. The reaction was initiated by addition of a small aliquot (5 μL) of Fe^2+ solution (10 mM FeSO4 in 10 mM HCl) to a buffer containing cilostazol, H2O2 (0.12 mM) and 5,5-dimethyl-1-pyrroline-N-oxide (DMPO) (1 mM). The sample was transferred quickly to flat quartz electron paramagnetic resonance (EPR) cell, and measurements were started immediately.
The EPR spectra of the spin-adduct of DMPO with the hydroxyl radical: DMPO/.OH was observed when DMPO reacted with hydroxyl radical generated by the Fenton system. The EPR spectra (.OH) are shown in the accompanying FIG. 1. Scavenging of hydroxyl radicals was confirmed by using catalase (0.510 U/ml) (data not shown).

[2] = Peroxyl radical absorbing capacity (PRAC) assay; conditions: 1 PRAC unit is the value of 1 μM of trolox, β-phycoerythrin fluorescence, 37° C.
Description: According to the method described by Cao et al. (Cao G, Alessio HM, Cutler RG (1993), Oxygen-radical absorbance capacity assay for antioxidants, Free Radic. Biol. Med 14: 303-311), the assay is based on production of peroxyl radicals by 2,2′-azobis(2-amidinopropane) hydrochloride (3 mM), a peroxyl radical generator, with subsequent oxidation of the reporter protein, β-phycoerythrin (16.7 nM) in 24 well plates. Into each sample well, either 20 μl of phosphate buffer or 20 μl of each concentration of cilostazol was included. After adding 2,2′-azobis(2-amidinopropane) hydrochloride, the reaction mixture was incubated at 37° C. Loss of fluorescence was measured every 5 minutes at the emission of 590 nm and excitation of 485 nm using Fluorescence Plate Reader (Bio-Tek Instruments, Inc., Winooski, USA). The PRAC value of the compound is reflected in the increase of area under curve of fluorescence versus time. Trolox was used as a reference for PRAC assay. The fluorescence just prior to addition of the 2,2′-azobis(2-amidinopropane) hydrochloride was estimated as the 100% value for that sample. The PRAC values were calculated by the following equation: [formula]
where 1 PRAC unit is the value of 1 μM of trolox.
The time-dependent decrease of β-phycoerythrin fluorescence in the absence (blank) and the presence of different concentrations of cilostazol is shown, in the accompanying FIG. 2. […]

**Q.** Which “DMPO/.OH adduct EPR signals” value ([1]; 10^−5 M of cilostazol) does the source give for O=C1CCc2cc(OCCCCc3nnnn3C3CCCCC3)ccc2N1 [cilostazol, 6-[4-(1-cyclohexyl-1H-tetrazol-5-yl)butoxy]-3,4-dihydrocarbostyril] here?
**A.** almost ameliorated

**Q.** And the IC50 ([1]; DMPO/.OH adduct formation, Fenton system, phosphate buffer 10 mM, room temperature, EPR, read-out: concentration required for inhibiting hydroxyl radical formation (IC50))?
**A.** 2580 ± 70 nM

**Q.** What about the PRAC value ([2]; 10^−4 M cilostazol) of the same compound?
**A.** 1.938 unit

**Q.** What about the PRAC value ([2]; 10^−6 M cilostazol) of the same compound?
**A.** 1.325 unit
